{"source": "patent US7910751B2", "about": "“Heterocyclidene acetamide derivative” (Mochida Pharmaceutical Co., Ltd., priority 2005, dated 2011)"}
{"biological_target": "T1, human TRPV1 (Homo sapiens, UniProt Q8NER1)", "T1 construct": "expressed in transfected cells; host or cells: CHO-K1", "T1 sequence (Q8NER1 whole entry)": "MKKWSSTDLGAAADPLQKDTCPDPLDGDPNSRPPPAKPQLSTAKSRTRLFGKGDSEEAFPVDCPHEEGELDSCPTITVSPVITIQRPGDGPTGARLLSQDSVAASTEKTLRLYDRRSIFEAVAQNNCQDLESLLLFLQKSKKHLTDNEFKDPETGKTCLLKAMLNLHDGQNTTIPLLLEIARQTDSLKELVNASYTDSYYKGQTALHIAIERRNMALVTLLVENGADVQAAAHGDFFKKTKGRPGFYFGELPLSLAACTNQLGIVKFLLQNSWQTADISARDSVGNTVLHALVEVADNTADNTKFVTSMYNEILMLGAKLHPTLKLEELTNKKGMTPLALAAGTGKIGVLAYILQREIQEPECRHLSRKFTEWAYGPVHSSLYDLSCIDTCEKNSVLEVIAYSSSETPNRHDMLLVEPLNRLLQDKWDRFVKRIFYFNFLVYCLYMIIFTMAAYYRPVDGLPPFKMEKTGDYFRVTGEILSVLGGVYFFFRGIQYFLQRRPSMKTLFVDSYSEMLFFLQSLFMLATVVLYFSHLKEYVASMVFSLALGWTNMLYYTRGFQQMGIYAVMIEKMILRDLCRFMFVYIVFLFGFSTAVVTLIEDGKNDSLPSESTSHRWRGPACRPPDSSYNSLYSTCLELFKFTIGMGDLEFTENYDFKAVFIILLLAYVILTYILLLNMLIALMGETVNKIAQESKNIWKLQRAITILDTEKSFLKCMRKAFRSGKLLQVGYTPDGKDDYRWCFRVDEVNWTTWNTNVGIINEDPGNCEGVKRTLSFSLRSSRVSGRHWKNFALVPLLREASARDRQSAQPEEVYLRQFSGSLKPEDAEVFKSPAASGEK", "experiment": "Measurement of capsaicin-induced Ca influx in human TRPV1 transformed CHO cell line using FDSS-6000", "type": "cell-based", "conditions": "concentration at which the capsaicin concentration-reaction curve is shifted two times to the right, human TRPV1 transformed CHO cells"}
{"smiles": "O=C(/C=C1\\CCCOc2cc(C(F)(F)F)ccc21)Nc1ncc(CO)cc1Cl", "note": "[Example 224, (E)-2-(8-trifluoromethyl-3,4-dihydrobenzo[b]oxepin-5(2H)-ylidene)-N-(3-chloro-5-hydroxymethyl-2-pyridyl)acetamide]", "A2 VALUE": "B (compounds having an A2 value of 100 nM or more are represented by B)"}
{"smiles": "CCC(F)(F)CC(=O)N1CC/C(=C\\C(=O)Nc2cccc3c2CC(O)CC3)c2ccc(C(F)(F)F)cc21", "note": "(centres unmarked) [Example 117, (E)-2-(1-(3,3-difluoropentanoyl)-7-trifluoromethyl-2,3-dihydroquinolin-4(1H)-ylidene)-N-(7-hydroxy-5,6,7,8-tetrahydronaphthalen-1-yl)acetamide]", "A2 VALUE": "A (compounds of the present invention having an A2 value of less than 100 nM are represented by A)"}
{"smiles": "CN1C(=O)CCc2ccc(NC(=O)/C=C3\\CCCOc4cc(C(F)(F)F)ccc43)cc21", "note": "[Example 178, (E)-2-(8-trifluoromethyl-3,4-dihydrobenzo[b]oxepin-5(2H)-ylidene)-N-(1-methyl-2-oxo-1,2,3,4-tetrahydroquinolin-7-yl)acetamide]", "A2 VALUE": "A (compounds of the present invention having an A2 value of less than 100 nM are represented by A)"}
{"smiles": "O=C(/C=C1\\CCCOc2cc(C(F)(F)F)ccc21)Nc1ccnc2ncnn12", "note": "[Example 44, (E)-N-([1,2,4]triazolo[1,5-a]pyrimidin-7-yl)-2-(8-trifluoromethyl-3,4-dihydrobenzo[b]oxepin-5(2H)-ylidene)acetamide]", "A2 VALUE": "B (compounds having an A2 value of 100 nM or more are represented by B)"}
{"smiles": "O=C(/C=C1\\CCCOc2cc(C(F)(F)F)ccc21)Nc1cccc2c1CC(O)C(O)C2", "note": "(stereo not drawn) [Example 66, (E)-2-(8-trifluoromethyl-3,4-dihydrobenzo[b]oxepin-5-(2H)-ylidene)-N-(cis-6,7-dihydroxy-5,6,7,8-tetrahydronaphthalen-1-yl)acetamide]", "A2 VALUE": "A (compounds of the present invention having an A2 value of less than 100 nM are represented by A)"}
{"smiles": "Cn1ccc2cc(NC(=O)/C=C3\\CCCOc4cc(C(F)(F)F)ccc43)ccc21", "note": "[Example 149, (E)-2-(8-trifluoromethyl-3,4-dihydrobenzo[b]oxepin-5(2H)-ylidene)-N-(1-methylindol-5-yl)acetamide]", "A2 VALUE": "A (compounds of the present invention having an A2 value of less than 100 nM are represented by A)"}
{"smiles": "Cc1ccc(S(=O)(=O)N2CCC/C(=C\\C(=O)Nc3ccc4cccnc4c3)c3ccc(C(F)(F)F)cc32)cc1", "note": "[Example 194, (E)-2-(1-(4-methylbenzenesulfonyl)-8-trifluoromethyl-1,2,3,4-tetrahydro-5H-benzo[b]azepin-5-ylidene)-N-(quinolin-7-yl)acetamide]", "A2 VALUE": "B (compounds having an A2 value of 100 nM or more are represented by B)"}
{"smiles": "CC1(C)C/C(=C\\C(=O)Nc2cccc3c2CC(O)CN3)c2ccc(C(F)(F)F)cc2O1", "note": "(centres unmarked) [Example 246, (E)-2-(7-trifluoromethyl-2,2-dimethylchroman-4-ylidene)-N-(3-hydroxy-1,2,3,4-tetrahydroquinolin-5-yl)acetamide]", "A2 VALUE": "A (compounds of the present invention having an A2 value of less than 100 nM are represented by A)"}
{"smiles": "O=C(/C=C1\\CCCOc2cc(C(F)(F)F)ccc21)Nc1ccc2c(c1)C(=O)NC2", "note": "[Example 166, (E)-2-(8-trifluoromethyl-3,4-dihydrobenzo[b]oxepin-5(2H)-ylidene)-N-(2,3-dihydro-isoindol-1-on-6-yl)acetamide]", "A2 VALUE": "A (compounds of the present invention having an A2 value of less than 100 nM are represented by A)"}
{"smiles": "O=C(/C=C1\\CCCOc2cc(C(F)(F)F)ccc21)Nc1cccc2c1CC(O)CN2", "note": "(centres unmarked) [Example 68, (E)-2-(8-trifluoromethyl-3,4-dihydrobenzo[b]oxepin-5(2H)-ylidene)-N-(3-hydroxy-1,2,3,4-tetrahydroquinolin-5-yl)acetamide]", "A2 VALUE": "A (compounds of the present invention having an A2 value of less than 100 nM are represented by A)"}
{"smiles": "O=C(/C=C1\\CCNc2cc(C(F)(F)F)ccc21)NC1CCc2cccnc2C1", "note": "(centres unmarked) [Example 49, (E)-2-(7-trifluoromethyl-2,3-dihydroquinolin-4(1H)-ylidene)-N-(5,6,7,8-tetrahydroquinolin-7-yl)acetamide]", "A2 VALUE": "B (compounds having an A2 value of 100 nM or more are represented by B)"}
{"smiles": "O=C(/C=C1\\CCN(c2ccc(Cl)cc2)c2cc(C(F)(F)F)ccc21)Nc1ccc2cccnc2c1", "note": "[Example 57, (E)-2-(1-(4-chlorophenyl)-7-trifluoromethyl-2,3-dihydro-4(1H)-ylidene)-N-(quinolin-7-yl)acetamide]", "A2 VALUE": "A (compounds of the present invention having an A2 value of less than 100 nM are represented by A)"}
{"smiles": "O=C(/C=C1\\CCCOc2cc(C(F)(F)F)ccc21)Nc1ccc2c(c1)OC(CO)CO2", "note": "(centres unmarked) [Example 165, (E)-2-(8-trifluoromethyl-3,4-dihydrobenzo[b]oxepin-5(2H)-ylidene)-N-(3-hydroxymethyl-2,3-dihydro-1,4-benzodioxin-6-yl)acetamide]", "A2 VALUE": "A (compounds of the present invention having an A2 value of less than 100 nM are represented by A)"}
{"smiles": "O=C(/C=C1\\CCN(C(=O)CCC(F)(F)F)c2cc(C(F)(F)F)ccc21)Nc1cccc2c1CC(O)CC2", "note": "(centres unmarked) [Example 91, (E)-2-(1-(4,4,4-trifluorobutanoyl)-7-trifluoromethyl-2,3-dihydroquinolin-4(1H)-ylidene)-N-(7-hydroxy-5,6,7,8-tetrahydronaphthalen-1-yl)acetamide]", "A2 VALUE": "A (compounds of the present invention having an A2 value of less than 100 nM are represented by A)"}
{"smiles": "COc1cccc(NC(=O)/C=C2\\CCCOc3cc(C(F)(F)F)ccc32)c1", "note": "[Example 16, (E)-2-(8-trifluoromethyl-3,4-dihydrobenzo[b]oxepin-5(2H)-ylidene)-N-(3-methoxyphenyl)acetamide]", "A2 VALUE": "A (compounds of the present invention having an A2 value of less than 100 nM are represented by A)"}
{"smiles": "O=C(/C=C1\\CCCOc2nc(C(F)(F)F)ccc21)Nc1cccc2c1CC(O)CC2", "note": "(centres unmarked) [Example 239, (E)-2-(8-trifluoromethyl-2,3,4,5-tetrahydrooxepino[2,3-b]pyridin-5-ylidene)-N-(7-hydroxy-5,6,7,8-tetrahydronaphthalen-1-yl)acetamide]", "A2 VALUE": "A (compounds of the present invention having an A2 value of less than 100 nM are represented by A)"}
{"smiles": "O=C(/C=C1\\CCCOc2cc(C(F)(F)F)ccc21)Nc1ccc2c(c1)C(=O)N(CCO)C2", "note": "[Example 176, (E)-2-(8-trifluoromethyl-3,4-dihydrobenzo[b]oxepin-5(2H)-ylidene)-N-(2-hydroxyethyl-2,3-dihydro-isoindol-1-on-6-yl)acetamide]", "A2 VALUE": "B (compounds having an A2 value of 100 nM or more are represented by B)"}
{"smiles": "CCCCC(=O)N1CC/C(=C\\C(=O)Nc2cccc3ccc(O)cc23)c2ccc(C(F)(F)F)cc21", "note": "[Example 74, (E)-2-(1-pentanoyl-7-trifluoromethyl-2,3-dihydroquinolin-4(1H)-ylidene)-N-(7-hydroxynaphthalen-1-yl)acetamide]", "A2 VALUE": "A (compounds of the present invention having an A2 value of less than 100 nM are represented by A)"}
{"smiles": "O=C(/C=C1\\CCOc2cc(Cl)ccc21)Nc1cccc2c1CC(O)CN2", "note": "(centres unmarked) [Example 209, (E)-2-(7-chloro-chroman-4-ylidene)-N-(3-hydroxy-1,2,3,4-tetrahydroquinolin-5-yl)acetamide]", "A2 VALUE": "A (compounds of the present invention having an A2 value of less than 100 nM are represented by A)"}
{"smiles": "O=C(/C=C1\\CCCOc2cc(C(F)(F)F)ccc21)Nc1ccc(Cl)c(C(F)(F)F)c1", "note": "[Example 136, (E)-2-(8-trifluoromethyl-3,4-dihydrobenzo[b]oxepin-5(2H)-ylidene)-N-(4-chloro-3-(trifluoromethyl)phenyl)acetamide]", "A2 VALUE": "A (compounds of the present invention having an A2 value of less than 100 nM are represented by A)"}
{"smiles": "O=C(/C=C1\\CCN(C(=O)CC(F)(F)F)c2cc(C(F)(F)F)ccc21)Nc1cccc2c1CC(O)CC2", "note": "(centres unmarked) [Example 92, (E)-2-(1-(3,3,3-trifluoropropanoyl)-7-trifluoromethyl-2,3-dihydroquinolin-4(1H)-ylidene)-N-(7-hydroxy-5,6,7,8-tetrahydronaphthalen-1-yl)acetamide]", "A2 VALUE": "A (compounds of the present invention having an A2 value of less than 100 nM are represented by A)"}
{"smiles": "O=C(/C=C1\\CCCOc2cc(C(F)(F)F)ccc21)NC1CCCc2cccnc2C1", "note": "(centres unmarked) [Example 45, (E)-2-(8-trifluoromethyl-3,4-dihydrobenzo[b]oxepin-5(2H)-ylidene)-N-(6,7,8,9-tetrahydro-5H-cyclohepta[b]pyridin-8-yl)acetamide]", "A2 VALUE": "B (compounds having an A2 value of 100 nM or more are represented by B)"}
{"smiles": "CC1(C)CC1C(=O)N1CC/C(=C\\C(=O)Nc2cccc3c2CC(O)CC3)c2ccc(C(F)(F)F)cc21", "note": "(centres unmarked) [Example 109, (E)-2-(7-trifluoromethyl-2,3-dihydro-1-((2,2-dimethylcyclopropane)carbonyl)quinolin-4(1H)-ylidene)-N-(7-hydroxy-5,6,7,8-tetrahydronaphthalen-1-yl)acetamide]", "A2 VALUE": "A (compounds of the present invention having an A2 value of less than 100 nM are represented by A)"}
{"smiles": "O=C(/C=C1\\CCCOc2cc(C(F)(F)F)ccc21)Nc1ccc2ccc(=O)[nH]c2c1", "note": "[Example 134, (E)-2-(8-trifluoromethyl-3,4-dihydrobenzo[b]oxepin-5(2H)-ylidene)-N-(2-quinolon-7-yl)acetamide]", "A2 VALUE": "A (compounds of the present invention having an A2 value of less than 100 nM are represented by A)"}
{"smiles": "O=C(/C=C1\\CCOc2nc(C(F)(F)F)ccc21)Nc1cccc2c1CC(O)CC2", "note": "(centres unmarked) [Example 238, (E)-2-(7-trifluoromethyl-3,4-dihydro-2H-pyrano[2,3-b]pyridin-4-ylidene)-N-(7-hydroxy-5,6,7,8-tetrahydronaphthalen-1-yl)acetamide]", "A2 VALUE": "A (compounds of the present invention having an A2 value of less than 100 nM are represented by A)"}
{"smiles": "O=C(/C=C1\\CCCOc2cc(C(F)(F)F)ccc21)Nc1cccc2c1CC(O)C2", "note": "(centres unmarked) [Example 163, (E)-2-(8-trifluoromethyl-3,4-dihydrobenzo[b]oxepin-5(2H)-ylidene)-N-(indan-2-ol-4-yl)acetamide]", "A2 VALUE": "A (compounds of the present invention having an A2 value of less than 100 nM are represented by A)"}
